In this experiment the target is T1, Human NPY Y5 receptors (Homo sapiens, UniProt Q15761).
T1 construct: expressed in transfected cells; host or cells: CHO cells (membrane protein)
T1 sequence (Q15761 1-445): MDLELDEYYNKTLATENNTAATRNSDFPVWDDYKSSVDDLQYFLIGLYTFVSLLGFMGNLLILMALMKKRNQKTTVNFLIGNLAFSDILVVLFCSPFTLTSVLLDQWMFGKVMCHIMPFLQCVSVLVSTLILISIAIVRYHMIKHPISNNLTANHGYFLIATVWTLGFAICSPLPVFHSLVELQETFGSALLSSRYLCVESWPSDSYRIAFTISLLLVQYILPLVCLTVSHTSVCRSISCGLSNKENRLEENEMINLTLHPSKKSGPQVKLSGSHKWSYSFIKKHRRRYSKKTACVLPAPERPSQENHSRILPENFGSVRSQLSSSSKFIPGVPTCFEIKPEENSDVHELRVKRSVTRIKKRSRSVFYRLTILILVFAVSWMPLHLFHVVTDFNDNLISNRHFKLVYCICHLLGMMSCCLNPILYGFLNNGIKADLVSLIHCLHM
Put plainly: NPY Receptor Binding Assay. The note with it: binding affinity at the human neuropeptide Y Y5 receptor subtype (hY5), expressed in CHO cells, 125I-peptide YY. The protocol: NPY Receptor Binding Assay
Human NPY Y5 receptors were expressed in CHO cells. Binding assays were performed in 50 mM HEPES, pH 7.2, 2.5 mM CaCl2, 1 mM MgCl2 and 0.1% BSA containing 5–10 μg of membrane protein and 0.1 nM […] in a total volume of 200 μl. Non-specific binding was determined in the presence of 1 μM NPY. The reaction mixtures were incubated for 90 minutes at room temperature then filtered through Millipore MAFC glass fiber filter plates which had been pre-soaked in 0.5% polyethleneimine. The filters were washed with phosphate-buffered saline, and radioactivity was measured in a Packard TopCount scintillation counter.
As usually defined, the Ki is the dissociation constant of the complex between target and ligand, obtained from inhibition or displacement. Low values mean higher affinity, high ones lower affinity. Molecule `CN(C(=O)Nc1cnn(-c2cc(F)cc(F)c2)c1)C1CCN(S(C)(=O)=O)CC1` displayed a Ki of 2.4 nM.

As to `CN(C(=O)Nc1cnn(-c2cc(F)cc(F)c2)c1)C1CCN(C(=O)OC(C)(C)C)CC1`, affinity was put at a Ki of 1.8 nM. `CN(C(=O)Nc1cnn(-c2cc(F)cc(F)c2)c1)C1CCNCC1`: affinity was put at a Ki of 276 nM. In the case of `CC(=O)N1CCC(N(C)C(=O)Nc2cnn(-c3cc(F)cc(F)c3)c2)CC1` it was 1.6 nM; in that of `CCC(=O)N1CCC(N(C)C(=O)Nc2cnn(-c3cc(F)cc(F)c3)c2)CC1`, 0.96 nM. In the case of `CN(C(=O)Nc1cnn(-c2cc(F)cc(F)c2)c1)C1CCN(C(=O)C2CC2)CC1` it was 1.2 nM; in that of `CC(C)C(=O)N1CCC(N(C)C(=O)Nc2cnn(-c3cc(F)cc(F)c3)c2)CC1`, 0.7 nM. In the case of `CCS(=O)(=O)N1CCC(N(C)C(=O)Nc2cnn(-c3cc(F)cc(F)c3)c2)CC1` it was 0.89 nM.

The molecule `CC(C)S(=O)(=O)N1CCC(N(C)C(=O)Nc2cnn(-c3cc(F)cc(F)c3)c2)CC1` gave a Ki of 1.7 nM.

The record behind these values is patent US7157472B2, “Neuropeptide Y Y5 receptor antagonists” (Schering Corporation, priority 2002, dated 2007).
